As a reminder, the EC50 is the midpoint of the concentration-response curve. As usually defined, the CC50 is the concentration at which the toxic effect on the cells reaches its halfway point. A high value points to better tolerance by the cells.

These results are taken from patent US12268694B2, “Combination pharmaceutical agents as RSV inhibitors” (Enanta Pharmaceuticals, Inc., priority 2017, dated 2025).

Data set [1] deals with genotype A, "Long" strain RSV. The data set is described as follows: RSV-A assay: CPE protection in HEp-2 cells, ATPlite readout. It is filed as cell-based, human respiratory syncytial virus. As to conditions: human respiratory syncytial virus, HEp-2, read-out: Human RSV-A (“Long” strain) EC50. The method in brief:
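HEp-2 cells (8,000/well) with 2-fold compound dilutions in duplicate, infected with Long-strain RSV at MOI 0.1 and incubated 5 days. Cell ATP measured by ATPlite luminescence to give EC50; uninfected parallel plate gives CC50.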
On the technique in general: Cellular ATP, detected with luciferase, serves as a proxy for viable cell number.

A further data set concerns HEp-2 cells. In words: Cytotoxicity in parallel to the RSV-A assay (no virus), ATPlite readout. It is filed as cell-based, human. On the procedure:
Following extensive parameter testing, the final assay is run as follows: HEp-2 cells are seeded into the inner 60 wells of a 96-well plate at 8,000 cells per well in a volume of 50 μL using Growth Media (DMEM without phenol red, 1% L-Glut, 1% Penn/Strep, 1% nonessential amino acids, 10% heat-inactivated FBS). 2-fold serial dilutions of control and test compounds are added to the wells in duplicate in a total volume of 25 μL. Viral stock is then added to the wells at a multiplicity of infection (MOI) of 0.1 in a volume of 25 μL, bringing the total volume of each well to 100 μL. The MOI is calculated using the PFU/mL, or TCID50 if unavailable. Each 96-well plate has a control column of 6 wells with cells and virus but no compound (negative control, max CPE), a column with cells but no compound or virus (positive control, minimum CPE), and a column with no cells or virus or compound (background plate/reagent control). The control wells with cells but no virus are given an additional 25 μL of growth media containing an equal quantity of sucrose as those wells receiving the viral stock in order to keep consistent in media and volume conditions. The outer wells of the plate are filled with 125 μL of moat media (DMEM, 1% Penn/Strep) to act as a thermal and evaporative moat around the test wells. Following a 5-day incubation period, the plates are read using ATPlite (50 μL added per well), which quantifies the amount of ATP (a measure of cell health) present in each well. Assay plates are read using the Envision luminometer. In parallel, cytotoxicity is examined on an additional 96-well plate treated in an identical manner, but substituting the 25 μL of viral stock for 25 μL of growth media. […] EC50 ranges are as follows: A <0.4 μM; B 0.4-0.8 μM; C >0.8 μM and CC50 ranges are as follows: A >50 μM; B 10-50 μM; C <10 μM.

On to `O=C1Nc2ccccc2C(c2ccccc2)=N[C@@H]1Nc1nnc(-c2ccco2)o1` [Example 10a], for which the 50% effective concentration (EC50) in data set [1] lay within 400 to 800 nM. In the data set with HEp-2 cells, this compound returned a CC50 above 50000 nM.
The matching figures for `O=C1Nc2ccccc2C(c2ccccc2)=N[C@H]1Nc1nnc(-c2ccco2)o1` [Example 10b]: above 800 nM and below 10000 nM.
The matching figures for `O=C1Nc2ccccc2C(c2ccccc2)=NC1Nc1nnc(-c2ccccn2)o1` (stereo not shown) [Example 11]: 400 to 800 nM and above 50000 nM.
The matching figures for `N#Cc1ccc(-c2nnc(NC3N=C(c4ccccc4)c4ccccc4NC3=O)o2)cc1` (stereo not shown) [Example 12]: 400 to 800 nM and above 50000 nM.
With `O=C1Nc2ccccc2C(c2ccccc2)=NC1Nc1nnc(-c2ccc(Cl)cc2)o1` (stereo not shown) [Example 13], the EC50 in data set [1] is below 400 nM. Also, the CC50 in the data set with HEp-2 cells is above 50000 nM.
For the compound `COc1cc(-c2nnc(NC3N=C(c4ccccc4)c4ccccc4NC3=O)o2)ccc1F` (stereo not shown) [Example 14], in data set [1], the EC50 is below 400 nM. In the data set on HEp-2 cells, this compound registered a 50% cytotoxic concentration (CC50) of 10000 to 50000 nM.
Taken in the same sequence, the figures for `CC(C)Oc1cccc(-c2nnc(NC3N=C(c4ccccc4)c4ccccc4NC3=O)o2)c1` (stereo not shown) [Example 15] were 400 to 800 nM and above 50000 nM.
The matching figures for `O=C1Nc2ccccc2C(c2ccccc2)=NC1Nc1nnc(-c2ccc3ccccc3c2)o1` (stereo not shown) [Example 16]: 400 to 800 nM and above 50000 nM.
In the case of `O=C1Nc2ccccc2C(c2ccccc2)=NC1Nc1nnc(-c2cccc3ccccc23)o1` (stereo not shown) [Example 17], the EC50 in data set [1] was above 800 nM. In the data set on HEp-2 cells, this compound had a CC50 above 50000 nM.
Take `Cc1nnc(NC2N=C(c3ccccc3)c3ccccc3NC2=O)o1` (stereo not shown) [Example 18]: the EC50 in data set [1] was above 800 nM. Further, in the data set with HEp-2 cells, the CC50 was above 50000 nM.
Taken in the same sequence, the figures for `Cc1ccc(-c2nnc(NC3N=C(c4ccccc4)c4ccccc4NC3=O)o2)s1` (stereo not shown) [Example 19] were above 800 nM and above 50000 nM.
Taken in the same sequence, the figures for `O=C1Nc2ccccc2C(c2ccccc2)=NC1Nc1nnc(-c2ccc(Cl)o2)o1` (stereo not shown) [Example 20] were above 800 nM and above 50000 nM.
Turning to `O=C1Nc2ccccc2C(c2ccccc2)=NC1Nc1nnc(C2CCOCC2)o1` (stereo not shown) [Example 21], the EC50 in data set [1] was above 800 nM. The CC50 in the data set on HEp-2 cells is above 50000 nM.
Taken in the same sequence, the figures for `O=C1Nc2ccccc2C(c2ccccc2)=NC1Nc1nnc(Cc2ccccc2)o1` (stereo not shown) [Example 22] were above 800 nM and above 50000 nM.
The matching figures for `O=C1Nc2ccccc2C(c2ccccc2)=NC1Nc1nnc(-c2ccc(F)cn2)o1` (stereo not shown) [Example 23]: above 800 nM and above 50000 nM.
The matching figures for `O=C1Nc2ccccc2C(c2ccccc2)=NC1Nc1nnc(-c2ccc(C(F)(F)F)cn2)o1` (stereo not shown) [Example 25]: above 800 nM and above 50000 nM.
Take `Cc1cccc(-c2nnc(NC3N=C(c4ccccc4)c4ccccc4NC3=O)o2)n1` (stereo not shown) [Example 26]: the EC50 in data set [1] is above 800 nM. In the data set on HEp-2 cells, this compound showed a CC50 above 50000 nM.
The matching figures for `CS(=O)(=O)c1ccc(-c2nnc(NC3N=C(c4ccccc4)c4ccccc4NC3=O)o2)cc1` (stereo not shown) [Example 27]: above 800 nM and above 50000 nM.
The matching figures for `O=C1Nc2ccccc2C(c2ccccc2)=NC1Nc1nnc(-c2ccc(C(F)(F)F)cc2)o1` (stereo not shown) [Example 28]: above 800 nM and above 50000 nM.
Taken in the same sequence, the figures for `O=C1Nc2ccccc2C(c2ccccc2)=NC1Nc1nnc(-c2cccc(C(F)(F)F)c2)o1` (stereo not shown) [Example 29] were above 800 nM and above 50000 nM.
On to `O=C1Nc2ccccc2C(c2ccccc2)=NC1Nc1nnc(-c2ccc(OC(F)(F)F)cc2)o1` (stereo not shown) [Example 30], for which the EC50 in data set [1] is above 800 nM. The compound also displayed a 50% cytotoxic concentration (CC50) in the data set with HEp-2 cells above 50000 nM.
Taken in the same sequence, the figures for `NS(=O)(=O)c1ccc(-c2nnc(NC3N=C(c4ccccc4)c4ccccc4NC3=O)o2)cc1` (stereo not shown) [Example 31] were 400 to 800 nM and above 50000 nM.
The matching figures for `N#Cc1cc(-c2nnc(NC3N=C(c4ccccc4)c4ccccc4NC3=O)o2)ccc1F` (stereo not shown) [Example 32]: 400 to 800 nM and above 50000 nM.
The matching figures for `N#Cc1ccc(-c2nnc(NC3N=C(c4ccccc4)c4ccccc4NC3=O)o2)cc1F` (stereo not shown) [Example 33]: above 800 nM and above 50000 nM.
As for `Cc1cc(-c2nnc(NC3N=C(c4ccccc4)c4ccccc4NC3=O)o2)ccc1C#N` (stereo not shown) [Example 34], the EC50 in data set [1] is 400 to 800 nM. The compound also showed a cytotoxic concentration (CC50) in the data set with HEp-2 cells above 50000 nM.
On to `N#Cc1cccc(-c2nnc(NC3N=C(c4ccccc4)c4ccccc4NC3=O)o2)c1` (stereo not shown) [Example 35], for which, in data set [1], the EC50 is above 800 nM. In the data set on HEp-2 cells, the CC50 was above 50000 nM.
The matching figures for `O=C1Nc2ccccc2C(c2ccccc2)=NC1Nc1nnc(-c2ccc(-n3cccn3)cc2)o1` (stereo not shown) [Example 36]: 400 to 800 nM and 10000 to 50000 nM.
The matching figures for `O=C1Nc2ccccc2C(c2ccccc2)=NC1Nc1nnc(-c2cccnc2)o1` (stereo not shown) [Example 37]: above 800 nM and above 50000 nM.
Taken in the same sequence, the figures for `N#Cc1cc(-c2nnc(NC3N=C(c4ccccc4)c4ccccc4NC3=O)o2)ccn1` (stereo not shown) [Example 38] were above 800 nM and above 50000 nM.
Take `O=C1Nc2ccccc2C(c2ccccc2)=NC1Nc1nnc(-c2ccc(=O)[nH]c2)o1` (stereo not shown) [Example 39]: the EC50 in data set [1] was above 800 nM. In addition, in the data set with HEp-2 cells, the cytotoxic concentration (CC50) was above 50000 nM.
The matching figures for `O=C1Nc2ccccc2C(c2ccccc2)=NC1Nc1nnc(-c2ccc3nc[nH]c3c2)o1` (stereo not shown) [Example 41]: above 800 nM and above 50000 nM.
The matching figures for `O=C1Nc2ccccc2C(c2ccccc2)=NC1Nc1nnc(-c2cc3cccnc3s2)o1` (stereo not shown) [Example 43]: above 800 nM and above 50000 nM.
Taken in the same sequence, the figures for `CN1CCc2nc(-c3nnc(NC4N=C(c5ccccc5)c5ccccc5NC4=O)o3)sc2C1` (stereo not shown) [Example 44] were above 800 nM and above 50000 nM.
As to `O=C1Nc2ccccc2C(c2ccccc2)=NC1Nc1nnc(C2CCNCC2)o1` (stereo not shown) [Example 45], the EC50 in data set [1] is above 800 nM. For the same compound, the CC50 in the data set on HEp-2 cells was above 50000 nM.
Taken in the same sequence, the figures for `CN1CCC(c2nnc(NC3N=C(c4ccccc4)c4ccccc4NC3=O)o2)CC1` (stereo not shown) [Example 46] were above 800 nM and above 50000 nM.
Taken in the same sequence, the figures for `CC(=O)N1CCC(c2nnc(NC3N=C(c4ccccc4)c4ccccc4NC3=O)o2)CC1` (stereo not shown) [Example 47] were above 800 nM and above 50000 nM.
Taken in the same sequence, the figures for `O=C1Nc2ccccc2C(c2ccccc2)=NC1Nc1nnc([C@@H]2COCCN2)o1` (stereo partly shown) [Example 48] were above 800 nM and above 50000 nM.
On to `O=C1Nc2ccccc2C(c2ccccc2)=NC1Nc1nnc([C@H]2COCCN2)o1` (stereo partly shown) [Example 49], for which the EC50 in data set [1] is above 800 nM. The CC50 in the data set on HEp-2 cells is above 50000 nM.
Take `O=C1Nc2ccccc2C(c2ccccc2)=NC1Nc1nnc(-c2ccc(F)cc2F)o1` (stereo not shown) [Example 50]: the EC50 in data set [1] is above 800 nM. Besides, the CC50 in the data set with HEp-2 cells was above 50000 nM.
The matching figures for `COc1ccc(-c2nnc(NC3N=C(c4ccccc4)c4ccccc4NC3=O)o2)nc1` (stereo not shown) [Example 51]: 400 to 800 nM and above 50000 nM.
Take `COc1cccc(-c2nnc(NC3N=C(c4ccccc4)c4ccccc4NC3=O)o2)n1` (stereo not shown) [Example 52]: the EC50 in data set [1] is below 400 nM. The compound further registered a 50% cytotoxic concentration (CC50) in the data set with HEp-2 cells above 50000 nM.
Taken in the same sequence, the figures for `O=C1Nc2ccccc2C(c2ccccc2)=NC1Nc1nnc(-c2ccc(F)nc2)o1` (stereo not shown) [Example 53] were 400 to 800 nM and above 50000 nM.
For the compound `COc1ccc(-c2nnc(NC3N=C(c4ccccc4)c4ccccc4NC3=O)o2)cn1` (stereo not shown) [Example 54], the half-maximal effective concentration (EC50) in data set [1] is below 400 nM. For the same compound, the CC50 in the data set on HEp-2 cells was above 50000 nM.
Take `O=C1Nc2ccccc2C(c2ccccc2)=NC1Nc1nnc(-c2ccnc(F)c2)o1` (stereo not shown) [Example 55]: in data set [1], the EC50 is below 400 nM. Moreover, in the data set with HEp-2 cells, the CC50 was above 50000 nM.
The matching figures for `COc1ccnc(-c2nnc(NC3N=C(c4ccccc4)c4ccccc4NC3=O)o2)c1` (stereo not shown) [Example 57]: above 800 nM and above 50000 nM.
The matching figures for `O=C1Nc2ccccc2C(c2ccccc2)=NC1Nc1nnc(-c2cnccn2)o1` (stereo not shown) [Example 58]: above 800 nM and above 50000 nM.
Consider `O=C1Nc2ccccc2C(c2ccccc2)=NC1Nc1nnc(-c2ncccn2)o1` (stereo not shown) [Example 59], for which, in data set [1], the EC50 is above 800 nM. In the data set with HEp-2 cells, this compound showed a CC50 above 50000 nM.
`O=C1Nc2ccccc2C(c2ccccc2)=NC1Nc1nnc(-c2cncnc2)o1` (stereo not shown) [Example 60]: the EC50 in data set [1] was above 800 nM. In addition, the half-maximal cytotoxic concentration (CC50) in the data set with HEp-2 cells is above 50000 nM.
On to `O=C1Nc2ccccc2C(c2ccccc2)=NC1Nc1nnc(-c2ccncc2)o1` (stereo not shown) [Example 61], for which, in data set [1], the EC50 was 400 to 800 nM. This compound displayed a CC50 in the data set on HEp-2 cells above 50000 nM.
Regarding `O=C1Nc2ccccc2C(c2ccccc2)=NC1Nc1nnc(-c2cccnn2)o1` (stereo not shown) [Example 62], the EC50 in data set [1] is above 800 nM. The CC50 in the data set with HEp-2 cells is above 50000 nM.
